Earlier results, collected in patent US20060155301A1, “Methods and devices usable in eye surgery” (priority 2002, published 2006).
Where two headings read alike, the source gives them in different places.

Key:
lens epithelial cells [1] = conditions: in vitro
lens epithelial cells [2] = conditions: EDTA solution in irrigation solution, cadaver eyes
lens epithelial cells [3] = conditions: 2% trypsin solution in irrigation solution, cadaver eyes

Molecule: O=c1[nH]cc(F)c(=O)[nH]1 [5 fluorouracil]
- inhibiting lens epithelial cells proliferation (lens epithelial cells [1]): effective

Molecule: O=C(O)CN(CCN(CC(=O)O)CC(=O)O)CC(=O)O [EDTA, Ethylenediamine tetraacetic acid]
- separation of lens epithelial cells (lens epithelial cells [2]): the anterior lens epithelial cells could be separated

Molecule: COc1cc2c(c(OC)c1OC)-c1ccc(OC)c(=O)cc1[C@@H](NC(C)=O)CC2 [colchicines]
- inhibiting lens epithelial cells proliferation (lens epithelial cells [1]): effective

Molecule: COc1cccc2c1C(=O)c1c(O)c3c(c(O)c1C2=O)C[C@@](O)(C(C)=O)C[C@@H]3O[C@H]1C[C@H](N)[C@H](O)[C@H](C)O1 [daunomycin/daunorubicin]
- inhibiting lens epithelial cells proliferation (lens epithelial cells [1]): effective

Molecule: COc1cccc2c1C(=O)c1c(O)c3c(c(O)c1C2=O)C[C@@](O)(C(=O)CO)C[C@@H]3O[C@H]1C[C@H](N)[C@H](O)[C@H](C)O1 [doxorubicin]
- inhibiting lens epithelial cells proliferation (lens epithelial cells [1]): effective

Molecule: CN(Cc1cnc2nc(N)nc(N)c2n1)c1ccc(C(=O)N[C@@H](CCC(=O)O)C(=O)O)cc1 [methotrexate]
- inhibiting lens epithelial cells proliferation (lens epithelial cells [1]): effective

Molecule: CO[C@@]12[C@H](COC(N)=O)C3=C(C(=O)C(C)=C(N)C3=O)N1C[C@@H]1N[C@@H]12 [mitomycin]
- inhibiting lens epithelial cells proliferation (lens epithelial cells [1]): effective

Molecule: CC(=O)O[C@H]1C(=O)[C@@]2(C)[C@H]([C@H](OC(=O)c3ccccc3)[C@]3(O)C[C@H](OC(=O)[C@H](O)[C@@H](NC(=O)c4ccccc4)c4ccccc4)C(C)=C1C3(C)C)[C@]1(OC(C)=O)CO[C@@H]1C[C@@H]2O [taxol]
- inhibiting lens epithelial cells proliferation (lens epithelial cells [1]): effective

B1: trypsin (protein, UniProt P00760 24-246, looked up)
Serine protease 1: IVGGYTCGANTVPYQVSLNSGYHFCGGSLINSQWVVSAAHCYKSGIQVRLGEDNINVVEGNEQFISASKSIVHPSYNSNTLNNDIMLIKLKSAASLNSRVASISLPTSCASAGTQCLISGWGNTKSSGTSYPDVLKCLKAPILSDSSCKSAYPGQITSNMFCAGYLEGGKDSCQGDSGGPVVCSGKLQGIVSWGSGCAQKNKPGVYTKVCNYVSWIKQTIASN
notes: enzyme evaluated for separation of lens epithelial cells
- damage to the zonules (lens epithelial cells [3]): the zonules were damaged
- separation of lens epithelial cells (lens epithelial cells [3]): lens epithelial cells were stripped in places
